US9597407B2, “Targeted antimicrobial moieties” (C3 Jian, Inc., priority 2009, dated 2017)
Entries after “also recorded” stand apart in the source; their conditions may differ. Ends that are not written are not given here.

Columns and labels:
microorganisms [1] = assay: Morphology, biofilm and growth disruption by peptides (Table 5); format: cell-based; parameters: key: A: Peptide aggregates; B: Less hyphal formation; Clumps; Diffuse clumps and small polyps; F: Diffuse growth; H: Thin; I: Growth inhibition; Microcolony formation; Rippled; Small polyps; Thick; W: Halo formation on top, microlonies on bottom
Excerpt: In certain embodiments peptides that induce alterations in phenotype or other biological activities can also be used as antimicrobial effector moieties.

microorganisms [2] = assay: Peptide activities: binding, antimicrobial, growth or phenotype altering (Table 8)
Excerpt: In certain embodiments, peptides described herein can have multiple activities. Thus for example, a peptide can have both binding/targeting activity and antimicrobial activity. Such peptides can be used, e.g., in a chimeric construct, for any or all of these properties. Thus, for example, a peptide designated “B” in Table 8 can be used as a targeting peptide. If it is also designated G or M it can also be used for antimicrobial activity.

bacteria = assay: Binding of targeting peptides to microorganisms (Table 3); settings: preferably 1x PBS; for Target(s) (microorganism bound by the targeting peptide) / Target(s) (microorganisms bound by the targeting peptide): peptide binding in aqueous buffers that varied depending on peptide solubility
[3] = microorganism the targeting peptide binds, binding in aqueous buffers that varied with peptide solubility
[4] = microorganism bound by the targeting peptide, binding in aqueous buffers chosen by peptide solubility

Substance | Organism, effect (morphology, biofilm and growth disruption) (microorganisms [1]; MRSA) | Organism, effect (morphology, biofilm and growth disruption) (microorganisms [1]; S. pneumoniae) | Activities (microorganisms [2]) | Target(s) (microorganisms bound by the targeting peptide) (bacteria) | Organism, effect (microorganisms [1]; S. epidermidis) | also measured
PF-622 (chain 1 TREDVFSVRLINNIVNKQA; chain 2 TREDVFSVRLINNIVNKQA; Peptide with targeting and/or antimicrobial activity) | MRSA (D) | S. pneumoniae (M) | G B |  |  | Organism, effect (morphology, biofilm and growth disruption) (microorganisms [1]; C. jeikeium): C. jeikeium (D); Organism, effect (morphology, biofilm and growth disruption) (microorganisms [1]; E. faecalis): E. faecalis (D); Organism, effect (morphology, biofilm and growth disruption) (microorganisms [1]; S. epidermidis): S. epidermidis (D); Target(s) (microorganism bound by the targeting peptide) (bacteria): S. epidermidis; also recorded: P. aeruginosa; also recorded: C. albicans; also recorded: S. pneumoniae; also recorded: E. faecalis; also recorded: C. jeikeium
PF-560 (FGNPFRGFTLAMEADFKKRK; Peptide with targeting and/or antimicrobial activity) | MRSA (C) | S. pneumoniae (R) | G B | S. epidermidis; also recorded: M. luteus; also recorded: E. coli; also recorded: S. pneumoniae; also recorded: C. jeikeium; also recorded: C. jejuni |  | Organism, effect (morphology, biofilm and growth disruption) (microorganisms [1]; B. subtilis): B. subtilis (D); Organism, effect (morphology, biofilm and growth disruption) (microorganisms [1]; C. jejuni): C. jejuni (A)
PF-552 (ELDKADAALGPAKNLAPLDVINRS; Peptide with targeting and/or antimicrobial activity) |  |  | G B | S. pneumoniae |  | Organism, effect (morphology, biofilm and growth disruption) (microorganisms [1]; B. subtilis): B. subtilis (D)
PF-017 (ESIIE; Peptide with targeting and/or antimicrobial activity) |  |  | G B |  |  | Organism, effect (microorganisms [1]; MRSA): MRSA (M); Target(s) (bacteria; [3]): E. coli
PF-514 (QRFYKLFYHIDLTNEQALKLFQVK; Peptide with targeting and/or antimicrobial activity) |  | S. pneumoniae (M) | G B | S. epidermidis and E. coli and P. aeruginosa and C. albicans and MRSA and S. pneumoniae and E. faecalis and C. jeikeium |  | Organism, effect (morphology, biofilm and growth disruption) (microorganisms [1]; E. coli): E. coli (R); Organism, effect (morphology, biofilm and growth disruption) (microorganisms [1]; E. faecalis): E. faecalis (C); Organism, effect (morphology, biofilm and growth disruption) (microorganisms [1]; S. epidermidis): S. epidermidis (C)
PF-043 (MIKNETAYQMNELLVIRSAYAK; Peptide with targeting and/or antimicrobial activity) |  |  | G B |  | S. epidermidis (D) | Organism, effect (microorganisms [1]; C. jeikeium): C. jeikeium (A); Organism, effect (microorganisms [1]; M. luteus): M. luteus (C); Organism, effect (microorganisms [1]; MRSA): MRSA (R); Target(s) (bacteria; [3]): M. luteus; also recorded: C. jejuni
PF-764 (chain 1 GYFEPGKRD; chain 2 GYFEPGKRD; Peptide with targeting and/or antimicrobial activity) | MRSA (D) | S. pneumoniae (H) | G B |  |  | Target(s) (microorganism bound by the targeting peptide) (bacteria): S. epidermidis and M. luteus and C. albicans and MRSA and S. pneumoniae and E. faecalis and C. jeikeium
PF-381 (QGANPCQQVGFTVNDPDCRLAKTV; Peptide with targeting and/or antimicrobial activity) |  |  | G B |  | S. epidermidis (C) | Organism, effect (microorganisms [1]; E. coli): E. coli (R); Organism, effect (microorganisms [1]; E. faecalis): E. faecalis (C); Organism, effect (microorganisms [1]; MRSA): MRSA (C); Target(s) (bacteria; [4]): E. coli; also recorded: P. aeruginosa; also recorded: C. jejuni
PF-626 (chain 1 KYDFDDFEPEEA; chain 2 KYDFDDFEPEEA; Peptide with targeting and/or antimicrobial activity) |  | S. pneumoniae (H) | G B |  |  | Target(s) (microorganism bound by the targeting peptide) (bacteria): S. epidermidis and M. luteus and E. coli and C. albicans and MRSA and S. pneumoniae and E. faecalis and C. jeikeium
PF-037 (MTKKRRYDTTEFGLAHSMTAKITLHQALYK; Peptide with targeting and/or antimicrobial activity) |  |  | G B |  | S. epidermidis (D) | Organism, effect (microorganisms [1]; C. jeikeium): C. jeikeium (D); Organism, effect (microorganisms [1]; M. luteus): M. luteus (C); Organism, effect (microorganisms [1]; MRSA): MRSA (R); Target(s) (bacteria; [3]): S. epidermidis and M. luteus and P. aeruginosa and C. albicans and MRSA and S. pneumoniae and E. faecalis and C. jeikeium
PF-034 (EPKKKHFPKMESASSEP; Peptide with targeting and/or antimicrobial activity) |  |  | G B |  | S. epidermidis (A) | Target(s) (bacteria; [3]): M. luteus
PF-383 (WSEIEINTKQSN; Peptide with targeting and/or antimicrobial activity) |  |  | G B |  | S. epidermidis (C) | Organism, effect (microorganisms [1]; E. coli): E. coli (R); Target(s) (bacteria; [4]): S. epidermidis; also recorded: B. subtilis; also recorded: B. fragilis; also recorded: E. coli; also recorded: C. jejuni
PF-C135 (KNTHAYLRVLRLSSLILSYQASVYPLFAYLCQQKDY; Peptide with targeting and/or antimicrobial activity) |  |  | G B |  |  | Organism, effect (morphology, biofilm and growth disruption) (microorganisms [1]; F. nucleatum): F. nucleatum (C); Organism, effect (morphology, biofilm and growth disruption) (microorganisms [1]; S. mutans): S. mutans (F); Target(s) (microorganism bound by the targeting peptide) (bacteria): A. naeslundii; also recorded: F. nucleatum; also recorded: P. gingivalis; also recorded: S. mutans
PF-021 (FSLNFSKQKYVTVN; Peptide with targeting and/or antimicrobial activity) |  |  | G B |  | S. epidermidis (A) | Organism, effect (microorganisms [1]; C. jeikeium): C. jeikeium (R); Organism, effect (microorganisms [1]; M. luteus): M. luteus (A); Organism, effect (microorganisms [1]; MRSA): MRSA (R); Target(s) (bacteria; [3]): S. epidermidis; also recorded: M. luteus; also recorded: P. mirabilis; also recorded: E. coli; also recorded: C. albicans; also recorded: E. faecalis; also recorded: C. jeikeium
PF-025 (LLIIFRLWLELKWKNKK; Peptide with targeting and/or antimicrobial activity) |  |  | G B |  | S. epidermidis (S) | Organism, effect (microorganisms [1]; C. jeikeium): C. jeikeium (A); Organism, effect (microorganisms [1]; M. luteus): M. luteus (A); Organism, effect (microorganisms [1]; MRSA): MRSA (R); Target(s) (bacteria; [3]): S. epidermidis and M. luteus and P. mirabilis and E. coli and P. aeruginosa and MRSA and E. faecalis and C. jejuni
PF-546 (PIIAPTIKTQIQ; Peptide with targeting and/or antimicrobial activity) | MRSA (D) | S. pneumoniae (D) | G B | S. epidermidis; also recorded: E. coli; also recorded: C. albicans; also recorded: S. pneumoniae; also recorded: E. faecalis; also recorded: C. jeikeium |  | Organism, effect (morphology, biofilm and growth disruption) (microorganisms [1]; C. jeikeium): C. jeikeium (D); Organism, effect (morphology, biofilm and growth disruption) (microorganisms [1]; E. coli): E. coli (R); Organism, effect (morphology, biofilm and growth disruption) (microorganisms [1]; E. faecalis): E. faecalis (D); Organism, effect (morphology, biofilm and growth disruption) (microorganisms [1]; S. epidermidis): S. epidermidis (D)
PF-519 (YLVYSGVLATAAAF-NH2) | MRSA (C) | S. pneumoniae (S) | G B | M. luteus; also recorded: E. faecalis; also recorded: C. jeikeium |  | Organism, effect (morphology, biofilm and growth disruption) (microorganisms [1]; E. coli): E. coli (R); Organism, effect (morphology, biofilm and growth disruption) (microorganisms [1]; E. faecalis): E. faecalis (C)
PF-467 (YYKDYFKEI; Peptide with targeting and/or antimicrobial activity) |  | S. pneumoniae (H) | G B | MRSA and E. faecalis and C. jeikeium and C. jejuni |  | 
PF-445 (ASMTKRLKLAMSKV; Peptide with targeting and/or antimicrobial activity) |  | S. pneumoniae (M) | G B | M. luteus; also recorded: S. pneumoniae; also recorded: C. jeikeium |  | 
PF-627 (chain 1 INDLLSYFTLHEK; chain 2 INDLLSYFTLHEK; Peptide with targeting and/or antimicrobial activity) | MRSA (R) | S. pneumoniae (I) | G B |  |  | Organism, effect (morphology, biofilm and growth disruption) (microorganisms [1]; C. albicans): C. albicans (B); Organism, effect (morphology, biofilm and growth disruption) (microorganisms [1]; E. faecalis): E. faecalis (H); Organism, effect (morphology, biofilm and growth disruption) (microorganisms [1]; S. epidermidis): S. epidermidis (H); Target(s) (microorganism bound by the targeting peptide) (bacteria): S. epidermidis and P. aeruginosa and MRSA and S. pneumoniae and E. faecalis and C. jeikeium
PF-461 (MTLAIKNCSVTKCLGFGDFVNDDSDSYFDA; Peptide with targeting and/or antimicrobial activity) | MRSA (R) | S. pneumoniae (R) | G B | E. coli; also recorded: S. pneumoniae |  | Organism, effect (morphology, biofilm and growth disruption) (microorganisms [1]; E. faecalis): E. faecalis (A)
PF-385 (MIKKSILKIKYYVPVLISLTLILSA; Peptide with targeting and/or antimicrobial activity) |  |  | G B | S. epidermidis; also recorded: E. coli; also recorded: P. aeruginosa; also recorded: C. albicans; also recorded: E. faecalis |  | Organism, effect (microorganisms [1]; E. coli): E. coli (A)
